Values of other authors, collected in PMC2785468, “Androgen Receptor Mutations Associated with Androgen Insensitivity Syndrome: A High Content Analysis Approach Leading to Personalized Medicine” (PLoS ONE, 2009).

How the values were obtained:
mutant F764L = details: transfected CHO cells; cited from earlier work
P766S = tested on: P766S; design: method as in PMID 7929841; details: cited from earlier work
F764L mutation = tested on: F764L mutation; design: method as in PMID 7929841; details: MMTV-luc reporter, transfected CV1 cells; cited from earlier work
R840C mutated receptor = details: transfected CV1 cells; cited from earlier work

C[C@]12CCC(=O)C[C@@H]1CC[C@@H]1[C@@H]2CC[C@]2(C)[C@@H](O)CC[C@@H]12 [DHT, dihydrotestosterone]
Kd (mutant F764L): 0.1 nM
transcriptional activity, % of control (P766S): 9%
transcriptional activity (in words) (F764L mutation): significantly decreased transcriptional activity
transcriptional activity, % of control (R840C mutated receptor): 67%
